From patent US20210045385A1, “PYRIDAZINONE-SUBSTITUTED KETOXIMES AS HERBICIDES” (FMC Corporation, priority 2018, published 2021)

Tests used:
Type in all cases: in vivo
[1] = tested on: ragweed (common ragweed, Ambrosia artemisiifolia); assay: Test C postemergence, visual plant response rating
Summary of the method: (§1)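 Visual injury on a 0 (no effect) to 100 (complete control) scale versus untreated controls, scored approximately 10 d after treatment under greenhouse conditions. Treatments used surfactant-containing non-phytotoxic solvent formulations, sprayed onto loam–sand soil preemergence or onto one- to two-leaf plants 2–10 cm tall postemergence.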

[2] = tested on: foxtail, giant (giant foxtail, Setaria faberi); assay: Test C postemergence, visual plant response rating
Summary of the method: as §1

[3] = tested on: Italian ryegrass (Lolium mutiflorum); assay: Test C postemergence, visual plant response rating
Summary of the method: as §1

[4] = tested on: corn (Zea mays); assay: Test C postemergence, visual plant response rating
Summary of the method: as §1

[5] = tested on: kochia (Bassia scoparia); assay: Test C postemergence, visual plant response rating
Summary of the method: as §1

[6] = tested on: barnyardgrass (Echinochloa crus-galli); assay: Test C postemergence, visual plant response rating
Summary of the method: as §1

[7] = tested on: wheat (Triticum aestivum); assay: Test C postemergence, visual plant response rating
Summary of the method: as §1

[8] = tested on: pigweed (Amaranthus retroflexus); assay: Test C postemergence, visual plant response rating
Summary of the method: as §1

[9] = tested on: galium (catchweed bedstraw, Galium aparine); assay: Test C postemergence, visual plant response rating
Summary of the method: as §1

[10] = tested on: blackgrass (Alopecurus myosuroides); assay: Test C postemergence, visual plant response rating
Summary of the method: as §1

[11] = tested on: duck salad (Heteranthera limosa); assay: Test D flooded paddy test, visual plant response rating; details: 250 g ai/ha, scale 0 to 100 (0 no effect, 100 complete control), 13 to 15 d
Summary of the method: (§2)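 Rating is visual, on a 0 (no effect) to 100 (complete control) scale versus controls, taken 13 to 15 d after treatment in a greenhouse. Treatment went into paddy water kept 3 cm above the soil surface, with plants at the 2-leaf stage.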

[12] = tested on: sedge umbrella (small-flower umbrella sedge, Cyperus difformis); assay: as above; details: 250 g ai/ha, scale 0 to 100 (0 no effect, 100 complete control), 13 to 15 d
Summary of the method: as §2

[13] = tested on: rice (Oryza sativa); assay: as above; details: 250 g ai/ha, scale 0 to 100 (0 no effect, 100 complete control), 13 to 15 d
Summary of the method: as §2

[14] = tested on: barnyardgrass (Echinochloa crus-galli); assay: as above; details: 250 g ai/ha, scale 0 to 100 (0 no effect, 100 complete control), 13 to 15 d
Summary of the method: as §2

[15] = tested on: ragweed (common ragweed, Ambrosia artemisiifolia); assay: Test C preemergence, visual plant response rating; details: Test C, 0 is no effect, 100 is complete control
Summary of the method: as §1

[16] = tested on: foxtail, giant (giant foxtail, Setaria faberi); assay: Test C preemergence, visual plant response rating; details: Test C, 0 is no effect, 100 is complete control
Summary of the method: as §1

[17] = tested on: Italian ryegrass (Lolium mutiflorum); assay: Test C preemergence, visual plant response rating; details: Test C, 0 is no effect, 100 is complete control
Summary of the method: as §1

[18] = tested on: kochia (Bassia scoparia); assay: Test C preemergence, visual plant response rating; details: Test C, 0 is no effect, 100 is complete control
Summary of the method: as §1

[19] = tested on: barnyardgrass (Echinochloa crus-galli); assay: Test C preemergence, visual plant response rating; details: Test C, 0 is no effect, 100 is complete control
Summary of the method: as §1

[20] = tested on: pigweed (Amaranthus retroflexus); assay: Test C preemergence, visual plant response rating; details: Test C, 0 is no effect, 100 is complete control
Summary of the method: as §1

[21] = Test C, postemergence, 125 g ai/ha

C=CCO/N=C(/c1c(O)c(C)nn(C)c1=O)c1cccc2cc(Cl)ccc12 [Compound 246]
Ragweed plant response rating (0 to 100 scale) ([1]; Postemergence, 31 g ai/ha): 80
Ragweed plant response rating (0 to 100 scale) [1, 21]: 100
Foxtail, Giant plant response rating (0 to 100 scale) ([2]; Postemergence, 31 g ai/ha): 70
Foxtail, Giant plant response rating (0 to 100 scale) [2, 21]: 70
Ryegrass, Italian plant response rating (0 to 100 scale) ([3]; Postemergence, 31 g ai/ha): 0
Ryegrass, Italian plant response rating (0 to 100 scale) [3, 21]: 30
Corn plant response rating (0 to 100 scale) ([4]; Postemergence, 31 g ai/ha): 20
Corn plant response rating (0 to 100 scale) [4, 21]: 10
Kochia plant response rating (0 to 100 scale) ([5]; Postemergence, 31 g ai/ha): 0
Kochia plant response rating (0 to 100 scale) [5, 21]: 20
Barnyardgrass plant response rating (0 to 100 scale) ([6]; Postemergence, 31 g ai/ha): 40
Barnyardgrass plant response rating (0 to 100 scale) [6, 21]: 70
Wheat plant response rating (0 to 100 scale) ([7]; Postemergence, 31 g ai/ha): 0
Wheat plant response rating (0 to 100 scale) [7, 21]: 0
Pigweed plant response rating (0 to 100 scale) ([8]; Postemergence, 31 g ai/ha): 70
Pigweed plant response rating (0 to 100 scale) [8, 21]: 80
Galium plant response rating (0 to 100 scale) ([9]; Postemergence, 31 g ai/ha): 80
Galium plant response rating (0 to 100 scale) [9, 21]: 90
Blackgrass plant response rating (0 to 100 scale) ([10]; Postemergence, 31 g ai/ha): 50
Blackgrass plant response rating (0 to 100 scale) [10, 21]: 70
Plant response rating, Ducksalad (Flood) [11]: 95
Plant response rating, Sedge, Umbrella (Flood) [12]: 100
Plant response rating, Rice (Flood) [13]: 90
Plant response rating, Barnyardgrass (Flood) [14]: 90
Ragweed plant response rating (0 to 100 scale) ([15]; 31 g ai/ha): 100
Ragweed plant response rating (0 to 100 scale) ([15]; 125 g ai/ha): 90
Foxtail, Giant plant response rating (0 to 100 scale) ([16]; 31 g ai/ha): 80
Foxtail, Giant plant response rating (0 to 100 scale) ([16]; 125 g ai/ha): 80
Ryegrass, Italian plant response rating (0 to 100 scale) ([17]; 31 g ai/ha): 30
Ryegrass, Italian plant response rating (0 to 100 scale) ([17]; 125 g ai/ha): 60
Kochia plant response rating (0 to 100 scale) ([18]; 31 g ai/ha): 0
Kochia plant response rating (0 to 100 scale) ([18]; 125 g ai/ha): 0
Barnyardgrass plant response rating (0 to 100 scale) ([19]; 31 g ai/ha): 60
Barnyardgrass plant response rating (0 to 100 scale) ([19]; 125 g ai/ha): 80
Pigweed plant response rating (0 to 100 scale) ([20]; 31 g ai/ha): 90
Pigweed plant response rating (0 to 100 scale) ([20]; 125 g ai/ha): 100
